Source: PMC5762338, “A novel orally available Syk/Src/Jak2 inhibitor, SKLB-850, showed potent anti-tumor activities in B cell lymphoma (BCL) models” (Oncotarget, 2017)

Tests used:
[1] = tested on: Ramos tumors; assay: In situ TUNEL of tumor tissues from the Ramos model; assay type: in vivo, NOD/SCID mice
Text: The ability of inducing apoptosis of SKLB-850 in tumor tissues was examined by TUNEL. […] We then examined apoptotic tumor cells in B-cell lymphoma samples from BCL patients after SKLB-850 treatment by FCM. As shown in Figure 6C and 6F, SKLB-850 induced cell apoptosis (14.10 ± 4.04%), and R788 had the same effect but relatively weak (7.60 ± 0.52%). To better understand the mechanism of antitumor activities in vivo, Ki67 and CD20 in mouse tumor tissues were detected by immunohischemistry; Ki67 was a marker of proliferation in the diagnosis of tumors and CD20 was highly expressed in B cell lymphomas.
Cell apoptosis in Ramos tumors was determined by a TUNEL assay following the manufacturer’s instructions (Promega). The number of TUNEL-positive cells was quantified by fluorescence microscopy and the apoptotic index in 6 random fields per group was counted.

[2] = tested on: Ramos xenograft; assay: Ramos xenograft mouse model; assay type: in vivo, NOD/SCID mice
Procedure: The in vivo anti-BCL effects of SKLB-850 were investigated in the Ramos and HBL xenograft mouse models with R788 being taken as a positive control. The animals were treated orally once daily for 21 days (Ramos model) or 36 days (HBL-1 model).
All animal studies were conducted according to the guidelines of the Animal Care and Use Committee of Sichuan University (Permit Number: 20121205, Chengdu, Sichuan, China). Ramos and HBL-1 tumor cells were established by subcutaneously injecting 1×10^7 cells (100μL) into the hind flank region of 7–8 week old female NOD/SCID mice (ICR, NOD/SCID). When tumors reached a volume of ∼200 mm^3, mice were randomly divided into different groups (6 per group), and SKLB-850 (40 mg/kg, 20mg/kg) or vehicle (5% DMSO, 25% PEG400, and 70% waters) were given once daily by oral gavage. Tumor growth and body weight were measured every three days or every day during the treatment. Tumor volumes were calculated using the formula as follow: tumor volume (mm^3) = 0.5× length (mm) × width (mm) ^2. Studies were typically terminated when tumors in vehicle treated animals reached an average size of 2,000 mm^3. Solid tumors were removed and processed for immunohistochemical analysis and terminal deoxynucleotidyl transferase-mediated dUTP nick end labeling (TUNEL) assay.

[3] = tested on: HBL-1 cells; assay: Apoptosis assay, AnnexinV-FITC/propidium iodide FCM; assay type: cell-based, Human; conditions: HBL-1, treatment for 18 hours (legend: 24 hours)
Procedure: Figure 1 The chemical structure of SKLB-850 and its anti-tumor effects in vitro (A) The chemical structure of SKLB-850. (B and C) Apoptosis of Ramos cells induced by SKLB-850. Cells were treated by vehicle, R788 or indicated concentrations of compounds. […]
The ability of SKLB-850 to induce apoptosis of BCL cells was analyzed by FCM. […]
Flow cytometry (FCM) assays were performed to investigate the apoptosis of Ramos and HBL-1 cells induced by SKLB-850. […] Cell apoptosis was analyzed with a flow cytometer (BD FACSCalibur, BD, USA).

## COc1cc(Nc2ncc(F)c(Nc3ccc4c(n3)N(COP(=O)(O)O)C(=O)C(C)(C)O4)n2)cc(OC)c1OC [R788, reference compound]
[1]
  apoptosis in tumor tissues (TUNEL): 242.20 ± 20.00 % of control
[2]; positive control, orally once daily
  anti-tumor effect (in words): some anti-tumor effect
[3]
  percentages of apoptotic cells (in words): induced apoptosis but obviously much weaker

## CN1CCN(c2ccc(Nc3ncc(F)c(Nc4ccc(Cl)cc4C(N)=O)n3)cc2)CC1 [SKLB-850, 5-chloro-2-((5-fluoro-2-((4-(4-methylpiperazin-1-yl)phenyl)amino)pyrimidin-4-yl)amino) benzamide]
[1]
  apoptosis in tumor tissues (TUNEL): 406.00 ± 20.70 % of control
[2]; 20 mg/kg orally once daily for 21 days
  tumor inhibition rate: 73.65% ± 21.22%
[2]; 40 mg/kg orally once daily for 21 days
  tumor inhibition rate: 78.82% ± 9.35%
[3]
  percentages of apoptotic cells (in words): dose-dependently increased
